Assay results as given in patent publication US6632799B2, “Injectable ready-to-use solutions containing an antitumor anthracycline glycoside” (Pharmacia & Upjohn Company, priority 1985, dated 2003).
Counter-ions that a name gives are not always drawn.

Assays:
[1] = pH-stability profile at 55° C. of doxorubicin.HCl solutions in sterile water, 5% dextrose, 0.9% saline; type: physicochemical; conditions: sterile water; for Doxorubicin.HCl % stability: 55° C.
[2] = Shelf-life (t 90%) forecast of doxorubicin.HCl 2 mg/ml 0.9% sodium chloride solution adjusted to pH 3.0; type: physicochemical; conditions: for Kobs × 10^3: observed
Description: The Arrhenius equation for the degradation process was calculated from the Kobs obtained from the different temperatures taken in account for the testing (table 13).

[3] = 0.9% NaCl pH 3.0, 27° C., Arrhenius
[4] = 0.9% sodium chloride pH 3.0, 35° C., 0 days
[5] = 0.9% sodium chloride pH 3.0, 35° C., 8 days
[6] = 0.9% sodium chloride pH 3.0, 35° C., 14 days
[7] = 0.9% sodium chloride pH 3.0, 35° C., 21 days
[8] = 0.9% sodium chloride pH 3.0, 35° C., 28 days
[9] = 0.9% sodium chloride pH 3.0, 45° C., 0 days
[10] = 0.9% sodium chloride pH 3.0, 45° C., 4 days
[11] = 0.9% sodium chloride pH 3.0, 45° C., 8 days
[12] = 0.9% sodium chloride pH 3.0, 45° C., 21 days
[13] = 0.9% sodium chloride pH 3.0, 55° C., 0 days
[14] = 0.9% sodium chloride pH 3.0, 55° C., 11 days
[15] = 0.9% sodium chloride pH 3.0, 60° C., 0 days
[16] = 0.9% sodium chloride pH 3.0, 60° C., 1 day
[17] = 0.9% sodium chloride pH 3.0, 60° C., 3 days

COc1cccc2c1C(=O)c1c(O)c3c(c(O)c1C2=O)C[C@@](O)(C(=O)CO)C[C@@H]3O[C@H]1C[C@H](N)[C@H](O)[C@H](C)O1 [Doxorubicin.HCl, doxorubicin hydrochloride]
Kobs × 10^3 ([1]; Glycine-HCl pH 3.0, 55° C.): 93.1 1/days
Doxorubicin.HCl % stability ([1]; pH 2.0 buffer, 0 hours): 100.0%
Doxorubicin.HCl % stability ([1]; pH 2.0 buffer, 8 hours): 93.6%
Doxorubicin.HCl % stability ([1]; pH 2.0 buffer, 16 hours): 82.6%
Doxorubicin.HCl % stability ([1]; pH 2.0 buffer, 24 hours): 76.9%
Doxorubicin.HCl % stability ([1]; pH 2.0 buffer, 48 hours): 56.6%
Doxorubicin.HCl % stability ([1]; pH 2.0 buffer, 72 hours): 39.6%
Doxorubicin.HCl % stability ([1]; pH 2.5 buffer, 0 hours): 100.0%
Doxorubicin.HCl % stability ([1]; pH 2.5 buffer, 8 hours): 96.7%
Doxorubicin.HCl % stability ([1]; pH 2.5 buffer, 16 hours): 92.1%
Doxorubicin.HCl % stability ([1]; pH 2.5 buffer, 24 hours): 86.2%
Doxorubicin.HCl % stability ([1]; pH 2.5 buffer, 48 hours): 78.2%
Doxorubicin.HCl % stability ([1]; pH 3.0 buffer, 0 hours): 100.0%
Doxorubicin.HCl % stability ([1]; pH 3.0 buffer, 8 hours): 97.8%
Doxorubicin.HCl % stability ([1]; pH 3.0 buffer, 16 hours): 93.9%
Doxorubicin.HCl % stability ([1]; pH 3.0 buffer, 24 hours): 91.4%
Doxorubicin.HCl % stability ([1]; pH 3.0 buffer, 48 hours): 84.7%
Doxorubicin.HCl % stability ([1]; pH 3.0 buffer, 72 hours): 76.1%
Doxorubicin.HCl % stability ([1]; pH 3.0 buffer, 120 hours): 62.8%
Doxorubicin.HCl % stability ([1]; pH 3.5 buffer, 0 hours): 100.0%
Doxorubicin.HCl % stability ([1]; pH 3.5 buffer, 8 hours): 95.8%
Doxorubicin.HCl % stability ([1]; pH 3.5 buffer, 16 hours): 92.7%
Doxorubicin.HCl % stability ([1]; pH 3.5 buffer, 24 hours): 90.4%
Doxorubicin.HCl % stability ([1]; pH 3.5 buffer, 48 hours): 81.1%
Doxorubicin.HCl % stability ([1]; pH 3.5 buffer, 72 hours): 75.6%
Doxorubicin.HCl % stability ([1]; pH 3.5 buffer, 120 hours): 61.0%
Doxorubicin.HCl % stability ([1]; pH 4.0 buffer, 0 hours): 100.0%
Doxorubicin.HCl % stability ([1]; pH 4.0 buffer, 8 hours): 88.0%
Doxorubicin.HCl % stability ([1]; pH 4.0 buffer, 16 hours): 82.7%
Doxorubicin.HCl % stability ([1]; pH 4.0 buffer, 24 hours): 76.8%
Doxorubicin.HCl % stability ([1]; pH 4.0 buffer, 48 hours): 57.4%
Doxorubicin.HCl % stability ([1]; pH 5.0 buffer, 0 hours): 100.0
Doxorubicin.HCl % stability ([1]; pH 5.0 buffer, 8 hours): 90.3
Doxorubicin.HCl % stability ([1]; pH 5.0 buffer, 16 hours): 83.6
Doxorubicin.HCl % stability ([1]; pH 5.0 buffer, 24 hours): 74.9
Doxorubicin.HCl % stability ([1]; pH 5.5 buffer, 0 hours): 100.0%
Doxorubicin.HCl % stability ([1]; pH 5.5 buffer, 8 hours): 88.3%
Doxorubicin.HCl % stability ([1]; pH 5.5 buffer, 16 hours): 69.7%
Doxorubicin.HCl % stability ([1]; pH 5.5 buffer, 24 hours): 60.0%
Doxorubicin.HCl % stability ([1]; pH 5.5 buffer, 48 hours): 44.1%
commercially meaningful shelf-life (t90% forecasts) ([2]; 2 mg/ml pH 3.0 in 0.9% sodium chloride): only if the product is stored in a refrigerator
K × 10^3 calculated ([2]; 0.9% NaCl pH 3.0, 4° C., Arrhenius): 0.017 1/days
K × 10^3 calculated ([2]; 0.9% NaCl pH 3.0, 8° C., Arrhenius): 0.037 1/days
K × 10^3 calculated ([2]; 0.9% NaCl pH 3.0, 15° C., Arrhenius): 0.137 1/days
K × 10^3 calculated [2, 3]: 1.112 1/days
t90% [2, 3]: 94 days
Kobs × 10^3 ([2]; 0.9% NaCl pH 3.0, 35° C.): 3.89 1/days
Kobs × 10^3 ([2]; 0.9% NaCl pH 3.0, 45° C.): 21.61 1/days
Kobs × 10^3 ([2]; 0.9% NaCl pH 3.0, 55° C.): 75.90 1/days
Kobs × 10^3 ([2]; 0.9% NaCl pH 3.0, 60° C.): 164.90 1/days
Doxorubicin.HCl assay [2, 4]: 2.061 mg/mL
pH [2, 4]: 3.05
Doxorubicin.HCl assay [2, 5]: 2.045 mg/mL
pH [2, 5]: 2.98
Doxorubicin.HCl assay [2, 6]: 1.946 mg/mL
pH [2, 6]: 2.92
Doxorubicin.HCl assay [2, 7]: 1.932 mg/mL
pH [2, 7]: 2.92
Doxorubicin.HCl assay [2, 8]: 1.852 mg/mL
pH [2, 8]: 2.98
Doxorubicin.HCl assay [2, 9]: 2.061 mg/mL
pH [2, 9]: 3.05
Doxorubicin.HCl assay [2, 10]: 1.996 mg/mL
pH [2, 10]: 2.98
Doxorubicin.HCl assay [2, 11]: 1.724 mg/mL
pH [2, 11]: 2.97
pH ([2]; 0.9% sodium chloride pH 3.0, 45° C., 14 days): 2.98
Doxorubicin.HCl assay [2, 12]: 1.344 mg/mL
pH [2, 12]: 2.93
Doxorubicin.HCl assay [2, 13]: 2.061 mg/mL
pH [2, 13]: 3.05
pH ([2]; 0.9% sodium chloride pH 3.0, 55° C., 4 days): 2.90
pH ([2]; 0.9% sodium chloride pH 3.0, 55° C., 8 days): 2.97
Doxorubicin.HCl assay [2, 14]: 0.900 mg/mL
pH [2, 14]: 2.95
Doxorubicin.HCl assay [2, 15]: 2.061 mg/mL
pH [2, 15]: 3.05
Doxorubicin.HCl assay [2, 16]: 1.742 mg/mL
pH [2, 16]: 2.97
pH ([2]; 0.9% sodium chloride pH 3.0, 60° C., 2 days): 2.96
Doxorubicin.HCl assay [2, 17]: 1.290 mg/mL
pH [2, 17]: 2.98
pH ([2]; 0.9% sodium chloride pH 3.0, 60° C., 4 days): 2.96
